The record followed here is US11999727B2 (Tango Therapeutics, Inc., priority 2020, dated 2024).

Experiment [1] addresses T1, PRMT5 (Homo sapiens, UniProt O14744).
T1 construct: purchased Viva (custom protein)
In words: PRMT5 biochemical IC50 assay with SAM as cofactor. The settings on record: PRMT5, SAM as cofactor; read-out: SAM IC50.

The target in experiment [2] is T1, PRMT5. In words: PRMT5 biochemical IC50 assay with no cofactor. Particulars: PRMT5, no cofactor; read-out: No Cofactor/rel IC50. The text has this:
Table 1 indicates IC50 values (μM) against PRMT5 for exemplary compounds in the presence of SAM as cofactor, with no cofactor, and with MTA as cofactor, respectively (columns 4-6). […] Ki values can be calculated from the IC50 values as described in the Examples section. As detailed in the Examples section, for the assay performed in the presence of SAM, IC50=Ki×1.5 (Ki=IC50/1.5).

The target in experiment [3] is T1, PRMT5. In words: PRMT5 biochemical IC50 assay with MTA as cofactor. The settings on record: PRMT5, MTA as cofactor; read-out: MTA IC50.
In experiment [4] the test system is HAP1 MTAP-intact cell line. In words: SDMA in-cell western assay, HAP1 MTAP-intact. The format is cell-based. Particulars: Homo sapiens, HAP1, SDMA in-cell western, HAP1 MTAP-intact; read-out: MTAP HAP1 intact IC50. In outline: (§1)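 MTAP-null vs endogenous-MTAP HAP1 isogenic cells; in-cell western SDMA readout; IC50 per line.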
For experiment [5], the system named is HAP1 MTAP-deleted cell line. In words: SDMA in-cell western assay, HAP1 MTAP-deleted. It counts as cell-based. The settings on record: for IC50: Homo sapiens, HAP1, SDMA in-cell western, HAP1 MTAP-deleted, read-out: HAP 1 MTAP deleted IC50; for MTAP intact/deleted ratio: IC50 ratio HAP1 MTAP-intact / HAP1 MTAP-deleted, SDMA in-cell western. The gist of the method:
as §1

For experiment [6], the system named is HAP1 MTAP-deleted cell line. In words: Viability assay, MTAP-deleted cell line. It counts as cell-based. Particulars: Homo sapiens, HAP1, viability IC50, MTAP-deleted cell line; read-out: HAP1 MTAP deleted viability. An excerpt: Table 1 additionally indicates IC50 values in a viability assay for the MTAP-deleted cell line (column 10), indicating the effect of treatment with compound on cell survival.

T1 sequence (O14744 whole entry): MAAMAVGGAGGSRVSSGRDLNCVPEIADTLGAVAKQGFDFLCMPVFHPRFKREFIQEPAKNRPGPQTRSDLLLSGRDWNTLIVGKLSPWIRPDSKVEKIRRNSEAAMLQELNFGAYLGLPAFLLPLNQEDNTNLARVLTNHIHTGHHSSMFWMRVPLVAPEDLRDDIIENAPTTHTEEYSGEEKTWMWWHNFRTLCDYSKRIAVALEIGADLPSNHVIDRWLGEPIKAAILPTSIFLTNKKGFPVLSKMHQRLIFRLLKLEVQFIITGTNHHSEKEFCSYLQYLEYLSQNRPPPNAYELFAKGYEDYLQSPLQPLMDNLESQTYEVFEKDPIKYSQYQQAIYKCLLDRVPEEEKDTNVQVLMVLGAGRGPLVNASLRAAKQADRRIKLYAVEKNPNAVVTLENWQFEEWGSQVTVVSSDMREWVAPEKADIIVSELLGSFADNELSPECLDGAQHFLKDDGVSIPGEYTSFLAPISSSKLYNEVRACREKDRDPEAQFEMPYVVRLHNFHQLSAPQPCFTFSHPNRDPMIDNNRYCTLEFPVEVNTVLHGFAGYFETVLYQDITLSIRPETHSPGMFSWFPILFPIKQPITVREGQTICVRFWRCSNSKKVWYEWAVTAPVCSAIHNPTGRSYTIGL
T1 sequence (Q9BQA1 whole entry partner): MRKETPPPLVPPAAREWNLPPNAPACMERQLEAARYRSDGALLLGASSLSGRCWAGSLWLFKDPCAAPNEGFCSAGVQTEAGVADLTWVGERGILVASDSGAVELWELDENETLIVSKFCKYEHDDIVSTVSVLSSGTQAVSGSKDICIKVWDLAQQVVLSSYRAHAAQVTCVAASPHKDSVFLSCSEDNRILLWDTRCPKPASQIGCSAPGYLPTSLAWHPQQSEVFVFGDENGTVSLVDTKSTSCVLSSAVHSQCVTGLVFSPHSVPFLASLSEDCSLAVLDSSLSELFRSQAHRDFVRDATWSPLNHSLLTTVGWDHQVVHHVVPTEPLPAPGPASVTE

Take `C[C@@H]1CC[C@@H](c2cccc(S(N)(=O)=O)c2)N(C(=O)C(=O)Nc2cncc(C(N)=O)c2)C1` (racemic) [Compound 661, 5-(2-(5-methyl-2-(3-sulfamoylphenyl)piperidin-1-yl)-2-oxoacetamido)nicotinamide]: the IC50 was 50 to 500 nM in experiment [1]; 50 to 500 nM in experiment [2]; < 50 nM in experiment [3]; > 1000 nM in experiment [4]; > 1000 nM in experiment [5]; > 10000 nM in experiment [6]. Moreover, in experiment [5], the MTAP intact/deleted ratio entry is recorded as “B (an IC50 ratio greater than or equal to 3 fold but lower than 10 fold)”.

Turning to `Cc1cc(NC(=O)C(=O)N2C[C@H](C)CC[C@H]2c2ccc(S(N)(=O)=O)cc2)cnc1N` (racemic) [Compound 662, N-(6-amino-5-methyl-3-pyridyl)-2-[(2S,5R)-5-methyl-2-(4-sulfamoylphenyl)-1-piperidyl]-2-oxo-acetamide], the IC50 in experiment [1] was 50 to 500 nM; in experiment [2], 50 to 500 nM; in experiment [3], 50 to 500 nM; in experiment [4], > 1000 nM; in experiment [5], 100 to 1000 nM; in experiment [6] it was > 10000 nM. Further, the MTAP intact/deleted ratio result in experiment [5] is recorded as “A (an IC50 ratio greater than or equal to 10 fold)”.

For `C[C@@H]1CC[C@@H](c2ccccc2C#N)N(C(=O)C(=O)Nc2cncc(C(N)=O)c2)C1` (racemic) [Compound 664, 5-[[2-[(2R,5S)-2-(2-Cyanophenyl)-5-methyl-1-piperidyl]-2-oxo-acetyl]amino]pyridine-3-carboxamide], the IC50 in experiment [1] was > 500 nM; in experiment [2] it was > 500 nM; in experiment [3] it was 50 to 500 nM; in experiment [4], > 1000 nM; in experiment [5], > 1000 nM; in experiment [6], > 10000 nM. In experiment [5], the MTAP intact/deleted ratio result is “B (an IC50 ratio greater than or equal to 3 fold but lower than 10 fold)”.

For `CNS(=O)(=O)c1cccc([C@@H]2CC[C@@H](C)CN2C(=O)C(=O)Nc2cncc(C(N)=O)c2)c1` (racemic) [Compound 666, 5-[[2-[(2S,5R)-5-methyl-2-[3-(methylsulfamoyl)phenyl]-1-piperidyl]-2-oxo-acetyl]amino]pyridine-3-carboxamide], the IC50 is 50 to 500 nM in experiment [1]; 50 to 500 nM in experiment [2]; < 50 nM in experiment [3]; > 1000 nM in experiment [4]; > 1000 nM in experiment [5]; > 10000 nM in experiment [6].

As to `Cc1cc(NC(=O)C(=O)N2C[C@H](C)CC[C@H]2c2cccc(S(C)(=O)=O)c2)cnc1N` (racemic) [Compound 667, N-(6-amino-5-methyl-3-pyridyl)-2-[(2R,5S)-5-methyl-2-(3-methylsulfonylphenyl)-1-piperidyl]-2-oxo-acetamide], the IC50 in experiment [1] is 50 to 500 nM; in experiment [2], 50 to 500 nM; in experiment [3], 50 to 500 nM; in experiment [4] it was > 1000 nM; in experiment [5], 100 to 1000 nM; in experiment [6], 1000 to 10000 nM. For the same compound, the MTAP intact/deleted ratio entry in experiment [5] is recorded as “A (an IC50 ratio greater than or equal to 10 fold)”.

Regarding `CNS(=O)(=O)c1ccc([C@@H]2CC[C@@H](C)CN2C(=O)C(=O)Nc2cnc(N)c(C)c2)cc1` (racemic) [Compound 668, N-(6-amino-5-methyl-3-pyridyl)-2-[(2S,5R)-5-methyl-2-[4-(methylsulfamoyl)phenyl]-1-piperidyl]-2-oxo-acetamide], the IC50 in experiment [1] was 50 to 500 nM; in experiment [2], 50 to 500 nM; in experiment [3], < 50 nM; in experiment [4] it was 100 to 1000 nM; in experiment [5], 100 to 1000 nM; in experiment [6], 1000 to 10000 nM. Further, the MTAP intact/deleted ratio result in experiment [5] is on record as “B (an IC50 ratio greater than or equal to 3 fold but lower than 10 fold)”.

Turning to `NC(=O)c1cncc(NC(=O)C(=O)N2C[C@H](c3cc[nH]n3)CC[C@H]2c2ccccc2)c1` (racemic) [Compound 669, rac-5-(2-oxo-2-((2R,5S)-2-phenyl-5-(1H-pyrazol-5-yl)piperidin-1-yl)acetamido)nicotinamide], the IC50 in experiment [1] was > 500 nM; in experiment [2], > 500 nM; in experiment [3] it was 50 to 500 nM; in experiment [4], > 1000 nM; in experiment [5] it was > 1000 nM; in experiment [6], > 10000 nM. Further, the MTAP intact/deleted ratio result in experiment [5] is “C (an IC50 ratio of less than 3 fold)”.

As for `C[C@@H]1CC[C@@H](c2ccc3[nH]c(=O)ccc3c2)N(C(=O)C(=O)Nc2cncc(C(N)=O)c2)C1` (racemic) [Compound 670, rac-5-(2-((2R,5S)-5-Methyl-2-(2-oxo-1,2-dihydroquinolin-6-yl)piperidin-1-yl)-2-oxoacetamido)nicotinamide], the IC50 in experiment [1] is 50 to 500 nM; in experiment [2], 50 to 500 nM; in experiment [3], < 50 nM; in experiment [4], > 1000 nM; in experiment [5], 100 to 1000 nM; in experiment [6], 1000 to 10000 nM. Besides, in experiment [5], the MTAP intact/deleted ratio entry is on record as “A (an IC50 ratio greater than or equal to 10 fold)”.

Consider `Cc1cc(NC(=O)C(=O)N2C[C@H](C)CC[C@H]2c2ccc3[nH]c(=O)ccc3c2)cnc1N` (racemic) [Compound 671, rac-N-(6-Amino-5-methyl-3-pyridyl)-2-[5-methyl-2-(2-oxo-1H-quinolin-6-yl)-1-piperidyl]-2-oxo-acetamide], for which the IC50 was 50 to 500 nM in experiment [1]; 50 to 500 nM in experiment [2]; < 50 nM in experiment [3]; 100 to 1000 nM in experiment [4]; < 100 nM in experiment [5]; < 1000 nM in experiment [6]. Besides, the MTAP intact/deleted ratio result in experiment [5] was “B (an IC50 ratio greater than or equal to 3 fold but lower than 10 fold)”.

In the case of `Cc1cc(NC(=O)C(=O)N2C[C@H](C)CC[C@H]2c2ccc(C(C)(C)O)cc2)cnc1N` (racemic) [Compound 672, N-(6-amino-5-methyl-3-pyridyl)-2-[(2R,5S)-2-[4-(1-hydroxy-1-methyl-ethyl)phenyl]-5-methyl-1-piperidyl]-2-oxo-acetamide], the IC50 was 50 to 500 nM in experiment [1]; 50 to 500 nM in experiment [2]; 50 to 500 nM in experiment [3]; > 1000 nM in experiment [4]; 100 to 1000 nM in experiment [5]; 1000 to 10000 nM in experiment [6]. In addition, the MTAP intact/deleted ratio result in experiment [5] is on record as “B (an IC50 ratio greater than or equal to 3 fold but lower than 10 fold)”.

`Cc1cc(NC(=O)C(=O)N2C[C@H](C)CC[C@H]2c2cnc3scnc3c2)cnc1N` (racemic) [Compound 685, N-(6-amino-5-methyl-3-pyridyl)-2-[(2S,5R)-5-methyl-2-thiazolo[5,4-b]pyridin-6-yl-1-piperidyl]-2-oxo-acetamide]: the IC50 in experiment [1] is > 500 nM; in experiment [2] it was 50 to 500 nM; in experiment [3], 50 to 500 nM; in experiment [4], > 1000 nM; in experiment [5] it was 100 to 1000 nM; in experiment [6], > 10000 nM. Besides, in experiment [5], the MTAP intact/deleted ratio result is recorded as “A (an IC50 ratio greater than or equal to 10 fold)”.

On to `Cc1cc(NC(=O)C(=O)N2C[C@H](C)CC[C@H]2c2cccc(S(N)(=O)=O)c2)cnc1N` (racemic) [Compound 688, N-(6-amino-5-methyl-3-pyridyl)-2-[(2S,5R)-5-methyl-2-(3-sulfamoylphenyl)-1-piperidyl]-2-oxo-acetamide], for which the IC50 in experiment [1] is 50 to 500 nM; in experiment [2], 50 to 500 nM; in experiment [3], < 50 nM; in experiment [4], > 1000 nM; in experiment [5], 100 to 1000 nM; in experiment [6], 1000 to 10000 nM. The MTAP intact/deleted ratio result in experiment [5] is on record as “A (an IC50 ratio greater than or equal to 10 fold)”.
